Experimental data from ChEMBL document CHEMBL1139332, “Selective activity against Mycobacteriumtuberculosis of new quinoxaline 1,4-di-N-oxides” (Bioorg Med Chem, 2009).
In brackets after ≈: the same amount, converted by molar mass.

Key:
[1] = system: Mycobacterium tuberculosis; assay: Antimicrobial activity against Mycobacterium tuberculosis H37Rv at 6.25 ug/ml by microplate alamar blue assay; format: functional
[2] = system: Mycobacterium tuberculosis; assay: Antimicrobial activity against Mycobacterium tuberculosis H37Rv by microplate alamar blue assay; format: functional
[3] = system: Vero; assay: Cytotoxicity against african green monkey Vero cells after 72 hrs by MTT assay; format: cell-based, Chlorocebus sabaeus
[4] = Selectivity index, ratio of IC50 for african green monkey Vero cells to MIC for Mycobacterium tuberculosis H37Rv; format: functional
[5] = Chlorocebus sabaeus, Vero, 72 h, read-out: IC50

| Compound | inhibition at 6.25 µg/mL [1] [%] | MIC [2] [µg/mL] | IC50 [3, 5] [µg/mL] | Ratio [4] | IC50 ([3]; vero) |
| --- | --- | --- | --- | --- | --- |
| COc1ccc(-c2c(C#N)[n+]([O-])c3cc(C)ccc3[n+]2[O-])cc1 | 90 | < 0.2 |  |  |  |
| Cc1ccc2c(c1)[n+]([O-])c(C#N)c(-c1ccc(Cl)cc1)[n+]2[O-] | 90 | 0.39 (≈ 1.25 µM) | 0.45 (≈ 1.44 µM) | 1.15 |  |
| Cc1ccc(-c2c(C#N)[n+]([O-])c3ccccc3[n+]2[O-])cc1 | 90 | 0.39 (≈ 1.41 µM) | 0.68 (≈ 2.45 µM) | 1.7 |  |
| N#Cc1c(-c2ccc(OC(F)(F)F)cc2)[n+]([O-])c2ccc(F)cc2[n+]1[O-] | 90 | < 0.2 |  |  |  |
| COc1ccc(-c2c(C#N)[n+]([O-])c3cc(C)c(C)cc3[n+]2[O-])cc1 | 90 | < 0.2 |  |  |  |
| CCOC(=O)c1c(-c2ccc(Cl)cc2)[n+]([O-])c2ccccc2[n+]1[O-] | 90 | 0.39 (≈ 1.13 µM) | 4.8 (≈ 13.9 µM) | 12.31 |  |
| Cc1ccc(-c2c(C#N)[n+]([O-])c3cc(C)ccc3[n+]2[O-])cc1 | 90 | 0.78 (≈ 2.68 µM) |  |  | ND(Insoluble) |
| COc1ccc2c(c1)[n+]([O-])c(C#N)c(-c1ccc(OC(F)(F)F)cc1)[n+]2[O-] | 90 | < 0.2 |  |  |  |
| Cc1cc2c(cc1C)[n+]([O-])c(N1CCN(c3ccc([N+](=O)[O-])cc3)CC1)c(C#N)[n+]2[O-] |  | < 0.2 |  | >125 |  |
| N#Cc1c(-c2ccc(F)cc2)[n+]([O-])c2ccc(Cl)cc2[n+]1[O-] | 90 | < 0.2 | 51.7 (≈ 164 µM) | >258.67 |  |
| CCOC(=O)c1c(-c2ccc(Br)cc2)[n+]([O-])c2ccccc2[n+]1[O-] | 90 | 0.39 (≈ 1 µM) | 6.12 (≈ 15.7 µM) | 15.69 |  |
| Cc1c(C(=O)OCc2ccccc2)[n+]([O-])c2cc(Cl)ccc2[n+]1[O-] |  | 0.1 (≈ 0.29 µM) |  | 470 |  |
| N#Cc1c(-c2ccc(F)cc2)[n+]([O-])c2ccc(C(F)(F)F)cc2[n+]1[O-] | 90 | < 0.2 | 0.99 (≈ 2.83 µM) | >4.94 |  |
| N#Cc1c(-c2ccc(F)cc2)[n+]([O-])c2ccccc2[n+]1[O-] | 90 | < 0.2 | 3.83 (≈ 13.6 µM) | >19.16 |  |
| COc1ccc2c(c1)[n+]([O-])c(C#N)c(-c1ccccc1)[n+]2[O-] | 90 | 3.13 (≈ 10.7 µM) |  |  | ND(Insoluble) |
| COC(=O)c1ccc(-c2c(C#N)[n+]([O-])c3cc(C)c(C)cc3[n+]2[O-])cc1 | 90 | 6.25 (≈ 17.9 µM) | 9.66 (≈ 27.7 µM) | 1.5 |  |
| Cc1cc2c(cc1C)[n+]([O-])c(-c1ccc(OC(F)(F)F)cc1)c(C#N)[n+]2[O-] | 90 | 0.42 (≈ 1.12 µM) |  |  |  |
| COc1ccc2c(c1)[n+]([O-])c(C#N)c(-c1ccc(F)cc1)[n+]2[O-] | 90 | < 0.2 | 95.1 (≈ 306 µM) | >475.55 |  |
| N#Cc1c(-c2ccc(OC(F)(F)F)cc2)[n+]([O-])c2cc(Cl)c(Cl)cc2[n+]1[O-] | 90 | < 0.2 |  |  |  |
| Cc1ccc2c(c1)[n+]([O-])c(C#N)c(-c1ccc(OC(F)(F)F)cc1)[n+]2[O-] | 90 | < 0.2 |  |  |  |

| Compound | inhibition at 6.25 µg/mL [1] [%] | MIC [2] [µg/mL] | IC50 [3, 5] [µg/mL] | Ratio [4] | IC50 ([3]; vero) |
| --- | --- | --- | --- | --- | --- |
| COc1ccc(-c2c(C#N)[n+]([O-])c3cc(F)ccc3[n+]2[O-])cc1 | 90 | < 0.2 | 13 (≈ 41.9 µM) | 65.15 |  |
| CCOC(=O)c1c(-c2ccccc2)[n+]([O-])c2ccc(C)cc2[n+]1[O-] | 90 | 1.56 (≈ 4.81 µM) | 18.6 (≈ 57.4 µM) | 11.93 |  |
| COc1ccc(-c2c(C#N)[n+]([O-])c3cc(Cl)c(Cl)cc3[n+]2[O-])cc1 | 90 | < 0.2 |  |  |  |
| COC(=O)c1ccc(-c2c(C#N)[n+]([O-])c3cc(Cl)ccc3[n+]2[O-])cc1 | 90 | 3.13 (≈ 8.8 µM) | 20.9 (≈ 58.7 µM) | 6.7 |  |
| N#Cc1c(-c2ccccc2)[n+]([O-])c2ccc(F)cc2[n+]1[O-] | 90 | < 0.2 | 17.6 (≈ 62.6 µM) | >88.03 |  |
| CCOC(=O)c1c(-c2ccccc2)[n+]([O-])c2cc(Cl)c(Cl)cc2[n+]1[O-] | 90 | < 0.2 |  |  |  |
| COc1ccc(-c2c(C#N)[n+]([O-])c3ccccc3[n+]2[O-])cc1 | 90 | < 0.2 |  |  |  |
| Cc1ccc2c(c1)[n+]([O-])c(C#N)c(-c1ccc(F)cc1)[n+]2[O-] | 90 | < 0.2 | > 100 | >500 |  |
| Cc1ccc(-c2c(C#N)[n+]([O-])c3cc(Cl)c(Cl)cc3[n+]2[O-])cc1 | 90 | 3.13 (≈ 9.04 µM) | 0.72 (≈ 2.08 µM) | 0.23 |  |
| CCOC(=O)c1c(-c2ccccc2)[n+]([O-])c2ccccc2[n+]1[O-] | 90 | 1.56 (≈ 5.03 µM) | 24.8 (≈ 79.8 µM) | 15.87 |  |
| COC(=O)c1ccc(-c2c(C#N)[n+]([O-])c3cc(C(F)(F)F)ccc3[n+]2[O-])cc1 | 90 | < 0.2 | 1.93 (≈ 4.96 µM) | >9.64 |  |
| Cc1ccc(-c2c(C#N)[n+]([O-])c3cc(Cl)ccc3[n+]2[O-])cc1 | 90 | 6.25 (≈ 20 µM) | 0.63 (≈ 2.02 µM) | 0.1 |  |
| Cc1ccc2c(c1)[n+]([O-])c(C#N)c(-c1ccccc1)[n+]2[O-] | 90 | 0.39 (≈ 1.41 µM) | 3.6 (≈ 13 µM) | 9.2 |  |
| COC(=O)c1ccc(-c2c(C#N)[n+]([O-])c3ccccc3[n+]2[O-])cc1 | 90 | 0.78 (≈ 2.43 µM) | 4.8 (≈ 14.9 µM) | 6.2 |  |
| Cc1cc2c(cc1C)[n+]([O-])c(-c1ccc(F)cc1)c(C#N)[n+]2[O-] | 90 | 1.69 (≈ 5.46 µM) | 100 (≈ 323 µM) | >59.07 |  |
| Cc1ccc(-c2c(C#N)[n+]([O-])c3cc(C(F)(F)F)ccc3[n+]2[O-])cc1 | 90 | < 0.2 | 0.28 (≈ 0.811 µM) | >1.42 |  |
| Cc1cc2c(cc1C)[n+]([O-])c(-c1ccc(Cl)cc1)c(C#N)[n+]2[O-] | 90 | 0.78 (≈ 2.39 µM) | > 10 | >12.8 |  |
| N#Cc1c(-c2ccc(Cl)cc2)[n+]([O-])c2ccc(Cl)cc2[n+]1[O-] | 90 | 0.39 (≈ 1.17 µM) |  |  | ND(Insoluble) |
| COc1ccc2c(c1)[n+]([O-])c(C#N)c(-c1ccc(Cl)cc1)[n+]2[O-] | 90 | 0.78 (≈ 2.38 µM) | 1 (≈ 3.05 µM) | 1.3 |  |
| CCOC(=O)c1c(-c2ccc(F)cc2)[n+]([O-])c2ccccc2[n+]1[O-] | 90 | 0.39 (≈ 1.19 µM) | 8.9 (≈ 27.1 µM) | 22.82 |  |

| Compound | inhibition at 6.25 µg/mL [1] [%] | MIC [2] [µg/mL] | IC50 [3, 5] [µg/mL] | Ratio [4] | IC50 ([3]; vero) |
| --- | --- | --- | --- | --- | --- |
| COc1ccc(-c2c(C#N)[n+]([O-])c3cc(C(F)(F)F)ccc3[n+]2[O-])cc1 | 90 | < 0.2 | 0.9 (≈ 2.49 µM) | >4.53 |  |
| CCOC(=O)c1c(-c2ccc(C)cc2)[n+]([O-])c2ccccc2[n+]1[O-] | 90 | 0.78 (≈ 2.4 µM) | 11.3 (≈ 34.8 µM) | 14.47 |  |
| CCOC(=O)c1c(-c2ccccc2)[n+]([O-])c2cc(C)c(C)cc2[n+]1[O-] | 90 | 6.25 (≈ 18.5 µM) | > 10 | >1.6 |  |
| CCOC(=O)c1c(-c2ccccc2)[n+]([O-])c2ccc(Cl)cc2[n+]1[O-] | 90 | 1.56 (≈ 4.52 µM) | 3.33 (≈ 9.66 µM) | 2.13 |  |
| COC(=O)c1ccc(-c2c(C#N)[n+]([O-])c3cc(C)ccc3[n+]2[O-])cc1 | 90 | 0.39 (≈ 1.16 µM) | 3.2 (≈ 9.54 µM) | 8.2 |  |
| N#Cc1c(-c2ccc(F)cc2)[n+]([O-])c2cc(Cl)c(Cl)cc2[n+]1[O-] | 90 | < 0.2 | 7.41 (≈ 21.2 µM) | >37.06 |  |
| CC(=O)c1c(C)[n+]([O-])c2ccc(Cl)cc2[n+]1[O-] |  | 0.78 (≈ 3.09 µM) |  | 20 |  |
| CO[C@H]1/C=C/O[C@@]2(C)Oc3c(C)c(O)c4c(O)c(c(/C=N/N5CCN(C)CC5)c(O)c4c3C2=O)NC(=O)/C(C)=C\C=C\[C@H](C)[C@H](O)[C@@H](C)[C@@H](O)[C@@H](C)[C@H](OC(C)=O)[C@@H]1C [RIFAMPIN] | 90 | 0.125 (≈ 0.152 µM) | > 100 | >800 |  |
| N#Cc1c(-c2ccc(Cl)cc2)[n+]([O-])c2ccc(C(F)(F)F)cc2[n+]1[O-] | 90 | < 0.2 | 1.34 (≈ 3.66 µM) | >6.68 |  |
| N#Cc1c(-c2ccc(Cl)cc2)[n+]([O-])c2cc(Cl)c(Cl)cc2[n+]1[O-] | 90 | < 0.2 |  |  | ND(Insoluble) |
| COc1ccc(-c2c(C#N)[n+]([O-])c3cc(Cl)ccc3[n+]2[O-])cc1 | 90 | < 0.2 |  |  |  |
| N#Cc1c(-c2ccc(OC(F)(F)F)cc2)[n+]([O-])c2ccc(C(F)(F)F)cc2[n+]1[O-] | 90 | < 0.2 |  |  |  |
| COC(=O)c1ccc(-c2c(C#N)[n+]([O-])c3cc(Cl)c(Cl)cc3[n+]2[O-])cc1 |  | > 6.25 |  |  |  |
| N#Cc1c(-c2ccc(OC(F)(F)F)cc2)[n+]([O-])c2ccc(Cl)cc2[n+]1[O-] | 90 | < 0.2 |  |  |  |
| N#Cc1c(-c2ccc(OC(F)(F)F)cc2)[n+]([O-])c2ccccc2[n+]1[O-] | 90 | < 0.2 |  |  |  |
| COc1ccc(-c2c(C#N)[n+]([O-])c3cc(OC)ccc3[n+]2[O-])cc1 | 90 | < 0.2 |  |  |  |
| N#Cc1c(-c2ccccc2)[n+]([O-])c2cc(Cl)c(Cl)cc2[n+]1[O-] | 90 | 0.2 (≈ 0.602 µM) |  |  | ND(Insoluble) |
| CCOC(=O)c1c(C)[n+]([O-])c2ccc(Cl)cc2[n+]1[O-] |  | 0.2 (≈ 0.708 µM) |  | >50 |  |
